pKi: −log10 of the molar value.
Legend:
Format in all cases: biochemical
[1] = target: T1, SIK2 (Homo sapiens, UniProt Q9H0K1); experiment: SIK2 kinase assay, IMAP fluorescence polarization; conditions: 50 or 100 μM ATP, average
T1 construct: purchased Life Technologies
Description: (§1) SIK2, SIK1, SIK3, Abl, Src and EPHA2 Kinase Assays
(§2) SIK2, SIK1, SIK3, Abl, Src and EPHA2 assays were performed using an IMAP fluorescence polarization assay format (Molecular Devices Inc.). 0.6-13 nM of each kinase (Life Technologies) was incubated for 60 min at room temperature with 100 nM of either FAM-Abltide, FAM-Srctide or FAM-HDAC protein derived peptide (synthesized by Alta Biosciences, Birmingham UK). Assays were carried out in the presence of 50 or 100 μM ATP in either 20 mM Tris buffer (pH 7.2) containing 4 mM MgCl2, 0.2% BSA and 2 mM DTT (SIK2, SIK1, SIK3, Abl, Src); or 20 mM Tris buffer (pH 8.5) containing 20 mM MgCl2, 0.5% BSA, 0.2% Triton and 5 mM DTT (EPHA2). Typically, dose response analyses were performed over concentration ranges from 0.00005-1 μM. Reactions were stopped by adding 2 assay volumes of 0.25% (v/v) IMAP binding reagent in either an 85:15 ratio (SIK2, SIK1, SIK3, Abl, EPHA2) or 30:70 ratio (Src) of IMAP binding buffers A and B (Molecular Devices). After incubation to allow the detection reagents to bind to the phosphorylated peptide, fluorescence polarization was measured on a Tecan Infinite plate reader at excitation (470 nm) and emission (530 nm) wavelengths. Inhibition was calculated using no inhibitor and no enzyme controls as 0 and 100% inhibition, respectively.
(§3) Table 3 provides details of the inhibitory constant (nM) of compounds of the invention at SIK1, SIK2 and SIK3 and other kinases.

[2] = target: T2, SIK3 (Homo sapiens, UniProt Q9Y2K2); experiment: SIK3 kinase assay, IMAP fluorescence polarization; conditions: 50 or 100 μM ATP, average
T2 construct: purchased Life Technologies
T2 sequence (Q9Y2K2 whole entry): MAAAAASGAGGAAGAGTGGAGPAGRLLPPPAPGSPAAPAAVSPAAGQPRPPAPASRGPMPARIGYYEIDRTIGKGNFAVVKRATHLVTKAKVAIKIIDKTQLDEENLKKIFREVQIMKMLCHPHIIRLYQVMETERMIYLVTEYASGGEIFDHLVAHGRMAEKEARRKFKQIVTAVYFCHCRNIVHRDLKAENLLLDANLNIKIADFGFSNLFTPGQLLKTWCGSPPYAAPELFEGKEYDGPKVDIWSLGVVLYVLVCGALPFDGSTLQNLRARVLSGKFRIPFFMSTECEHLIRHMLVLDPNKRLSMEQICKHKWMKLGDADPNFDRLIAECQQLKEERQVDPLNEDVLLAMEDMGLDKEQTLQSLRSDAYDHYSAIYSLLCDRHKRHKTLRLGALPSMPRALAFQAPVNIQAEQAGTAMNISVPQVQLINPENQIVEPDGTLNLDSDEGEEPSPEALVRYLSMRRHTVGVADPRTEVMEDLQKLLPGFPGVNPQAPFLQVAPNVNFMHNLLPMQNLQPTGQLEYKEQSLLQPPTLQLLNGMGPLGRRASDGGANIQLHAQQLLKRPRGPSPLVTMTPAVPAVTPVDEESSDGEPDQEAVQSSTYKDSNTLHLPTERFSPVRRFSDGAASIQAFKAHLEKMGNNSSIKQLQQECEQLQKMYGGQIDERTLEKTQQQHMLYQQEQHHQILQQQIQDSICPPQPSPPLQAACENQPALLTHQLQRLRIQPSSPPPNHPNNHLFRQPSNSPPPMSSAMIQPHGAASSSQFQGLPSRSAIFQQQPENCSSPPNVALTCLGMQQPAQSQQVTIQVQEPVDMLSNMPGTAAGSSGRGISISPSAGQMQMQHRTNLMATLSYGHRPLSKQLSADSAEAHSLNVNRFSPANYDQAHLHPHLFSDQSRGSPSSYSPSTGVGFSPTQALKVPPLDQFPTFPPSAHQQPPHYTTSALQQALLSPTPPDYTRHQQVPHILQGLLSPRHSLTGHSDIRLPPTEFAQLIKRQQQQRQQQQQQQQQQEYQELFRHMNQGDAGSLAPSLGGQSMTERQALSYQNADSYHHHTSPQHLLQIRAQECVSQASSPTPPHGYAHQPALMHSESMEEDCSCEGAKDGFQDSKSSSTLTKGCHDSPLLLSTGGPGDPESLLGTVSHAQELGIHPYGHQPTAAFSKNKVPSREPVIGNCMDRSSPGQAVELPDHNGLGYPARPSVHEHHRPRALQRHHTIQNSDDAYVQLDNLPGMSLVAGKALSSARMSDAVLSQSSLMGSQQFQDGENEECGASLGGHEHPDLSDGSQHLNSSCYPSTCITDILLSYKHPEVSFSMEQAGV
Description: as §1, §2, §3

[3] = target: T3, Src (Homo sapiens, UniProt P12931); experiment: Src kinase assay, IMAP fluorescence polarization; conditions: 50 or 100 μM ATP, average
T3 construct: purchased Life Technologies
T3 sequence (P12931 whole entry): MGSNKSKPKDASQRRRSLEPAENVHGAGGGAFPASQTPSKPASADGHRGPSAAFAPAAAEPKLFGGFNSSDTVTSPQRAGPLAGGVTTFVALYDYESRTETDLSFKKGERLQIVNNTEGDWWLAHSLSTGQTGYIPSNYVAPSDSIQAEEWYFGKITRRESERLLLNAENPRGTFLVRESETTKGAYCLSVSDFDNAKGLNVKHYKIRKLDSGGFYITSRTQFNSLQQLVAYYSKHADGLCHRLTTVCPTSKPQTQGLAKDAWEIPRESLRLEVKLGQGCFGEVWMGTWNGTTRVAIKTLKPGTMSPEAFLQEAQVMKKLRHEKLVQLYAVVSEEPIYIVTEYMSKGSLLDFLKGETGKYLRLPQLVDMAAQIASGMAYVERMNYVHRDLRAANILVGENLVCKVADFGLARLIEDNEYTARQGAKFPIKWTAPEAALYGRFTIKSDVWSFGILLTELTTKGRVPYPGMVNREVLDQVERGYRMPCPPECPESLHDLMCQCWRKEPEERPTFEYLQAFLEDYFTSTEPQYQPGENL
Description: as §1, §2, §3

[4] = target: T4, SIK1 (Homo sapiens, UniProt P57059); experiment: SIK1 kinase assay, IMAP fluorescence polarization; conditions: 50 or 100 μM ATP, average
T4 construct: purchased Life Technologies
Description: as §1, §2, §3

[5] = target: T5, EPHA2 (Homo sapiens, UniProt P29317); experiment: EPHA2 kinase assay, IMAP fluorescence polarization; conditions: 50 or 100 μM ATP, Tris pH 8.5, average
T5 construct: purchased Life Technologies
T5 sequence (P29317 24-976): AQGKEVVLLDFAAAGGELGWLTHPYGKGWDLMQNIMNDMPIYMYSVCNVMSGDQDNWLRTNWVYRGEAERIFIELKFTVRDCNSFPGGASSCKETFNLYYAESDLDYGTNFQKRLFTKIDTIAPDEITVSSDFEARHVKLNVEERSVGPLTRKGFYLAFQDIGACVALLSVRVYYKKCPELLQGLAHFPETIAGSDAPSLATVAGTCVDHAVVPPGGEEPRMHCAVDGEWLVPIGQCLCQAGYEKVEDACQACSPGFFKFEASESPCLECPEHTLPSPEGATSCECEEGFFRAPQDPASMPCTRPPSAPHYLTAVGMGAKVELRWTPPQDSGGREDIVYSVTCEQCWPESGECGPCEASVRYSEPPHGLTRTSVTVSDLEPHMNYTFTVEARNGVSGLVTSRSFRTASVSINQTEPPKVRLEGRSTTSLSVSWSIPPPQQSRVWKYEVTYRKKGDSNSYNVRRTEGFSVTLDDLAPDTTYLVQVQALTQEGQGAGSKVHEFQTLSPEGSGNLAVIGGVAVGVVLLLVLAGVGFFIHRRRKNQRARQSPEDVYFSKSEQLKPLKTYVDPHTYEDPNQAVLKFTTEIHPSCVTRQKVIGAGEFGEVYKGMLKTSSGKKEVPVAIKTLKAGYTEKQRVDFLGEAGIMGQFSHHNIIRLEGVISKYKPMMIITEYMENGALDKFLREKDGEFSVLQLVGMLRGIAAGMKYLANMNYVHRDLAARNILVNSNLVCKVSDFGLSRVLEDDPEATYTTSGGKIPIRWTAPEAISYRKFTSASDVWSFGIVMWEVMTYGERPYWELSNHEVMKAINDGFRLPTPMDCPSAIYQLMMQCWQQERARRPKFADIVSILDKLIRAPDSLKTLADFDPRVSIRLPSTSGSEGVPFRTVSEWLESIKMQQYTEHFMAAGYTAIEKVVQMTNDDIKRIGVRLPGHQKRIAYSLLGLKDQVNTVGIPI
Description: as §1, §2, §3

[6] = target: T6, Abl (Homo sapiens, UniProt P00519); experiment: Abl kinase assay, IMAP fluorescence polarization; conditions: 50 or 100 μM ATP, average
T6 construct: purchased Life Technologies
T6 sequence (P00519 whole entry): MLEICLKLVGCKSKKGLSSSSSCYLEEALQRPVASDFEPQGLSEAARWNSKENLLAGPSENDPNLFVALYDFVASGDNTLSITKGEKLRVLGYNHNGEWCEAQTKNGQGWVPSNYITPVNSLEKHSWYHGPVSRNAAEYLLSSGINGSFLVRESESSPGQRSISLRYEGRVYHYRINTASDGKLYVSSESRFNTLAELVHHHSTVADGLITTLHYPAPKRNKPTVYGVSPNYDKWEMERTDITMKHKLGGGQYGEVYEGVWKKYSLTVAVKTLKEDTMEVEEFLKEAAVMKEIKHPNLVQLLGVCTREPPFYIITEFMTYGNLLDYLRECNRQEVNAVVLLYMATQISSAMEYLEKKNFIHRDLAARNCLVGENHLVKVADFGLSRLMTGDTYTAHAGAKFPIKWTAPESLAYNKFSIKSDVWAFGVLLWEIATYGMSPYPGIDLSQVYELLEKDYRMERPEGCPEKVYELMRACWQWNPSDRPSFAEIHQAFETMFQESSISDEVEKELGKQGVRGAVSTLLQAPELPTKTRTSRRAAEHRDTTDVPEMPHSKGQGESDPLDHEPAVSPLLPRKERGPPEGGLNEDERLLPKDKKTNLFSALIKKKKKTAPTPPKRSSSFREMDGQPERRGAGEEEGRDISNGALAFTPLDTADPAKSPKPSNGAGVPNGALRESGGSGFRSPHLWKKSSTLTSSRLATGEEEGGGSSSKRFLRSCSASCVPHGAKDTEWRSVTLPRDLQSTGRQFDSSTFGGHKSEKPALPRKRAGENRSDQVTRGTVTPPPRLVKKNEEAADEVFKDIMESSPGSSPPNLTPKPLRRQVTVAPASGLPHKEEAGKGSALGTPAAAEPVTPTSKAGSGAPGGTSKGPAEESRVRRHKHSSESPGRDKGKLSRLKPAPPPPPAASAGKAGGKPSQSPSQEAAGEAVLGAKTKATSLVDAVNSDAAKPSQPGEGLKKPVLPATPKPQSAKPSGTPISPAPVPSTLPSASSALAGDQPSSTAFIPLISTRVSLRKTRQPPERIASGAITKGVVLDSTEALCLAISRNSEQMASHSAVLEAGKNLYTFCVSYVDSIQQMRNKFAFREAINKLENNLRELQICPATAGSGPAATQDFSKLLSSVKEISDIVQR
Description: as §1, §2, §3

T1 sequence (Q9H0K1 whole entry): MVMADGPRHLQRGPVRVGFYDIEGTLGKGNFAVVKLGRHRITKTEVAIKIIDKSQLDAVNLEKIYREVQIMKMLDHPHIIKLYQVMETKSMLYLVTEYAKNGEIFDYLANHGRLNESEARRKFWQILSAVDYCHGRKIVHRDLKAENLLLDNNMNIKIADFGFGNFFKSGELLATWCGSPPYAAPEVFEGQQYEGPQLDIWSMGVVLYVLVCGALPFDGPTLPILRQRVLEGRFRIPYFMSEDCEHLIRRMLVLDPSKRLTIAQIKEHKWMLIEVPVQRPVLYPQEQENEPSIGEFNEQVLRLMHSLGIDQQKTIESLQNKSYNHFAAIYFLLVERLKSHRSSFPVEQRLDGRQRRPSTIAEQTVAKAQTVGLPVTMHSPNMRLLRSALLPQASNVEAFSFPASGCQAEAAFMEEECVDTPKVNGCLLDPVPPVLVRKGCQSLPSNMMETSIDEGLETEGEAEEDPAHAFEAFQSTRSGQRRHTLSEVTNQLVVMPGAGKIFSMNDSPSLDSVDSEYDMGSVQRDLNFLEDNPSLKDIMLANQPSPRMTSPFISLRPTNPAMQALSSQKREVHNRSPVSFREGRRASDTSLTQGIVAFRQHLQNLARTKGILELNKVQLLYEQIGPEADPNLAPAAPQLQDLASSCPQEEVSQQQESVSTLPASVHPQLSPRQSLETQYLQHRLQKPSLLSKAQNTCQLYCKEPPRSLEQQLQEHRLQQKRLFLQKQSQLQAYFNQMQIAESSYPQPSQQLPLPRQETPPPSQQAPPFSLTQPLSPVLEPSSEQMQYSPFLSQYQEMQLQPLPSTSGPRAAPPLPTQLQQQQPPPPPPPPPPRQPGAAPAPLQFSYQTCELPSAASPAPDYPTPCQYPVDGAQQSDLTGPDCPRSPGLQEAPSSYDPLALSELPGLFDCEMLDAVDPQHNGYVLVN

Structure (SMILES) | pKi [1] | pKi [2] | pKi [3] | pKi [4] | pKi [5] | pKi [6]
Cc1cccc(F)c1-c1cc(N[C@@H]2CCCCNC2)c2cc(N)ncc2c1 [Example 17, N5-[(3R)-azepan-3-yl]-7-(2-fluoro-6-methyl-phenyl)isoquinoline-3,5-diamine] | 10.02 | 8.78 | < 6.00 | 9.33 | < 6.00 | 8.59
CN[C@H]1CCCN(c2cc(-c3c(C)cccc3F)cc3cnc(N)cc23)C1 [Example 18, 7-(2-fluoro-6-methyl-phenyl)-5-[(3S)-3-(methylamino)-1-piperidyl]isoquinolin-3-amine] | 9.71 | 8.15 | 7.27 | 9.18 | 7.00 | 8.73
CN[C@@H]1CCCN(c2cc(-c3c(C)cccc3F)cc3cnc(N)cc23)C1 [Example 19, 7-(2-fluoro-6-methyl-phenyl)-5-[(3R)-3-(methylamino)-1-piperidyl]isoquinolin-3-amine] | 9.95 | 8.35 | 6.51 | 9.32 | < 6.00 | 7.61
CNC[C@H]1CCCN(c2cc(-c3c(C)cccc3F)cc3cnc(N)cc23)C1 [Example 21, 7-(2-fluoro-6-methyl-phenyl)-5-[(3R)-3-(methylamino-methyl)-1-piperidyl]isoquinolin-3-amine] | 9.56 | 8.03 | 7.30 | 9.23 | 7.38 | 7.98
CNC[C@@H]1CCCN(c2cc(-c3c(C)cccc3F)cc3cnc(N)cc23)C1 [Example 22, 7-(2-fluoro-6-methyl-phenyl)-5-[(3S)-3-(methylamino-methyl)-1-piperidyl]isoquinolin-3-amine] | 9.25 | 7.87 | 6.52 | 8.78 | 6.64 | 7.33
Cc1cccc(F)c1-c1cc(N[C@H]2CCCCNC2)c2cc(N)ncc2c1 [Example 23, N5-[(3S)-azepan-3-yl]-7-(2-fluoro-6-methyl-phenyl)isoquinoline-3,5-diamine] | 10.31 | 9.77 | 7.80 | 9.54 | 7.61 | 8.43
CN[C@@H]1CCN(c2cc(-c3c(C)cccc3F)cc3cnc(N)cc23)C1 [Example 24, 7-(2-fluoro-6-methyl-phenyl)-5-[(3R)-3-(methylamino)pyrrolidin-1-yl]isoquinolin-3-amine] | 9.40 | 8.12 | 6.49 | 8.63 | 6.83 | 7.47
Cc1cccc(F)c1-c1cc(N[C@@H]2CCCNC2)c2cc(N)ncc2c1 [Example 25, 7-(2-fluoro-6-methyl-phenyl)-N5-[(3R)-3-piperidyl]isoquinoline-3,5-diamine] | 9.88 | 8.89 | < 6.00 | 9.26 | < 6.00 | 8.30
Cc1cccc(F)c1-c1cc(N[C@H]2CCCNC2)c2cc(N)ncc2c1 [Example 26, 7-(2-fluoro-6-methyl-phenyl)-N5-[(3S)-3-piperidyl]isoquinoline-3,5-diamine] | 10.40 | 10.08 | 6.79 | 9.52 | 7.61 | 9.47
CNc1cc2c(NC3CCNCC3)cc(-c3c(C)cccc3F)cc2cn1 [Example 27, 7-(2-Fluoro-6-methyl-phenyl)-N3-methyl-N5-(4-piperidyl)isoquinoline-3,5-diamine] | 10.13 | 9.46 | 6.66 | 9.37 | 6.67 | 7.64
Cc1cccc(F)c1-c1cc(NC2CCNCC2)c2cc(NC(C)C)ncc2c1 [Example 28, 7-(2-fluoro-6-methyl-phenyl)-N3-isopropyl-N5-(4-piperidyl)isoquinoline-3,5-diamine] | 9.81 | 9.30 | 6.38 | 8.86 | < 6.00 | 7.83

Other lines, results leading:

pKi [1] | pKi [2] | pKi [3] | pKi [4] | pKi [5] | pKi [6] | Structure (SMILES)
10.25 | 9.35 | 7.01 | 9.42 | 6.78 | 7.71 | CNC1CN(c2cc(-c3c(C)cccc3F)cc3cnc(N)cc23)C1 [Example 29, 7-(2-Fluoro-6-methyl-phenyl)-5-[3-(methylamino)azetidin-1-yl]isoquinolin-3-amine]
9.48 | 8.54 | 7.02 | 9.32 | 7.18 | 7.44 | Cc1cccc(Cl)c1-c1cc(NC2CCNCC2)c2cc(N)ncc2c1 [Example 30, 7-(2-Chloro-6-methyl-phenyl)-N5-(4-piperidyl)isoquinoline-3,5-diamine]
9.01 | 8.02 | 6.50 | 8.59 | < 6.00 | 6.74 | Cc1cccc(Cl)c1-c1cc(NC2CNC2)c2cc(N)ncc2c1 [Example 31, N5-(azetidin-3-yl)-7-(2-chloro-6-methyl-phenyl)isoquinoline-3,5-diamine]
8.18 | 7.00 | 6.70 | 7.77 | 6.76 | 6.47 | Cc1cccc(Cl)c1-c1ccc2c(C(=O)N[C@@H]3CCNC3)c(N)ncc2c1 [Example 42, 3-amino-7-(2-chloro-6-methyl-phenyl)-N-[(3R)-pyrrolidin-3-yl]isoquinoline-4-carboxamide]
8.23 | 7.43 | 6.54 | 7.81 | 6.19 | 7.07 | Cc1cccc(F)c1-c1cc(NC(=O)C2CCNCC2)c2cc(N)ncc2c1 [Example 44, N-[3-Amino-7-(2-fluoro-6-methyl-phenyl)-5-isoquinolyl]piperidine-4-carboxamide]
8.26 | 7.45 | 6.05 | 7.75 | 6.03 | 7.08 | Cc1cccc(F)c1-c1cc(NC(=O)C2CNC2)c2cc(N)ncc2c1 [Example 45, N-[3-amino-7-(2-fluoro-6-methyl-phenyl)-5-isoquinolyl] azetidine-3-carboxamide]
10.69 | 9.90 | 7.02 | 9.72 | 7.41 | 8.44 | Cc1cccc(F)c1-c1cc(OC2CCNCC2)c2cc(N)ncc2c1 [Example 46, 7-(2-Fluoro-6-methyl-phenyl)-5-(4-piperidyloxy)isoquinolin-3-amine]
9.77 | 8.68 | 6.14 | 9.00 | 5.97 | 7.87 | Cc1cccc(F)c1-c1cc(OC2CNC2)c2cc(N)ncc2c1 [Example 47, 5-(azetidin-3-yloxy)-7-(2-fluoro-6-methyl-phenyl)isoquinolin-3-amine]
10.05 | 9.53 | 6.49 | 9.47 | 6.64 | 7.65 | Cc1cccc(F)c1-c1cc(O[C@@H]2CCNC2)c2cc(N)ncc2c1 [Example 48, 7-(2-fluoro-6-methyl-phenyl)-5-[(3R)-pyrrolidin-3-yl]oxy-isoquinolin-3-amine]
9.94 | 9.11 | 6.66 | 9.30 | 6.76 | < 6.00 | Cc1cccc(F)c1-c1cc(NC2CCNCC2)c2ccncc2c1 [Example 49, 7-(2-Fluoro-6-methyl-phenyl)-N-(4-piperidyl)isoquinolin-5-amine]
9.01 | 8.49 | 7.01 | 8.90 | 7.72 | 7.18 | Cc1cccc(Cl)c1-c1cc(NC2CCNCC2)c2ccncc2c1 [Example 50, 7-(2-chloro-6-methyl-phenyl)-N-(4-piperidyl) isoquinolin-5-amine]
9.27 | 8.50 | 6.66 | 8.55 | 6.62 | 7.60 | Cc1cccc(F)c1-c1cc(NC2CNC2)c2ccncc2c1 [Example 51, N-(azetidin-3-yl)-7-(2-fluoro-6-methyl-phenyl)isoquinolin-5-amine]
8.51 | 7.94 | 7.22 | 8.26 | 7.62 | 7.92 | Cc1cccc(F)c1-c1cc(C(=O)NC2CCNCC2)c2cc(N)ncc2c1 [Example 52, 3-Amino-7-(2-fluoro-6-methyl-phenyl)-N-(4-piperidyl)isoquinoline-5-carboxamide]

— patent US12637428B2, “Isoquinoline derivatives as SIK2 inhibitors” (Cancer Research Technology Limited, priority 2019, dated 2026)
